This experiment has as its target T1, α-synuclein (Homo sapiens, UniProt P37840, A91C).
T1 construct: gene SNCA
The experiment in a line: ASYN-CONA on-bead aggregation assay (confocal bead ring intensity, […] EtOH, […] h). It is filed as biochemical.

Our source for the IC50 values is publication PMC6534341, “α-Synuclein–Confocal Nanoscanning (ASYN-CONA), a Bead-Based Assay for Detecting Early-Stage α-Synuclein Aggregation” (Analytical Chemistry, 2019).

The structures appear in SMILES notation. Where two headings read alike, the source gives them in different places.

In the case of `O=c1cc(-c2ccccc2)oc2cc(O)c(O)c(O)c12` [baicalein], the IC50 came to 4.32 ± 0.6 µM.

In the case of `COc1cc(/C=C/C(=O)CC(=O)/C=C/c2ccc(O)c(OC)c2)ccc1O` [curcumin], the IC50 (read-out: IC50) turned out to be 2.76 ± 0.89 µM.

Turning to `CO[C@H]1/C=C/O[C@@]2(C)Oc3c(C)c(O)c4c(O)c(c(/C=N/N5CCN(C)CC5)c(O)c4c3C2=O)NC(=O)/C(C)=C\C=C\[C@H](C)[C@H](O)[C@@H](C)[C@@H](O)[C@@H](C)[C@H](OC(C)=O)[C@@H]1C` [rifampicin], the IC50 (read-out: IC50) is 502 ± 360 µM.
